Laboratory results taken from US9283281B2, “Preparation of triple responsive nanogel system and its application” (University of South Carolina, priority 2013, dated 2016).

System: UMSCC22A cells
Test: Cell death after PDT by propidium iodide fluorometry
Assay type: cell-based
Conditions: after irradiation; after 5 h of PDT
Procedure: After exposure to red light, cells were incubated for various periods of time prior to analysis.
Cell death was assessed by propidium iodide (PI) fluorometry using a multi-well fluorescence plate reader, as previously described. Human head and neck cancer cells (UMSCC22A) were plated on 96-well plates (15,000 cells/well) in Dulbecco's Modified Eagle's Medium (DMEM) (Gibco) supplemented with 10% fetal bovine serum (FBS) and penicillin/streptomycin (complete culture medium) in a humidified 37° C. incubator at 5% CO2/95% air. […] Before exposure to light, cells were changed to fresh medium supplemented with PI (30 μM) and Insulin-Transferrin-Selenium-X (ITX) reagent [insulin (10 μg/ml), transferrin (5.5 μg/m), selenium (6.7 ng/ml), ethanolamine (0.2 mg/ml)] (Gibco) but omitting FBS. PI fluorescence was measured at frequent intervals using 530 nm excitation (25 nm band pass) and 620 nm emission (40 nm band pass) filters. Between measurements, microtiter plates were placed in a 37° C. incubator. At the end of the experiment, digitonin (200 μM) was added to each well to permeabilize all cells and label all nuclei with PI. Cell viability determined by PI fluorometry is essentially the same as cell viability determined by trypan blue exclusion.

## Silicon phthalocyanine [Pc 4]
  cell killing: 35%
